Experimental data from patent publication US8143397B2 (Medichem S.A., priority 2006, dated 2012).

Assay: Particle size distribution (Malvern laser particle size analyser)
Format: physicochemical
Conditions: dispersed in 0.1% Tween 20 in DI water, sonicated 2 minutes
Method: vii. Particle Size Distribution
Particle size measurement was obtained using a Malvern particle size analyser equipped with a 2 milliwatt Helium/Neon laser and a Fourier Transform lens system. The sample was run using the […]. The sample unit was a MS1-Small Volume Sample Dispersion Unit stirred cell. The dispersant was DI water. The sample particle size distribution was assumed to follow a normal distribution.
Analysis model: polydisperse.
Setup presentation: standard wet (30HD)
1 ml of Tween 20 was diluted to 1000 ml with water (solution 0.1% of Tween 20 in DI water). Approximately 250 mg of sample was dispersed in 20 ml of the solution 0.1% of Tween 20 in DI water. This sample was sonicated for 2 minutes and delivered dropwise to the previously filled and background corrected measuring cell until the desired obscuration was reached.
This dispersion (the dispersion in the stirring measuring cell) was measured after stabilization of the obscuration.

Q: With `C[C@@H](c1ncncc1F)[C@](O)(Cn1cncn1)c1ccc(F)cc1F` [Example 2, Voriconazole] as the compound, how does the “Particle Size Distribution D(v, 0.1)” value read?
A: 36.9 μm

Q: And the “Particle Size Distribution D(v, 0.5)” value?
A: 102.4 μm

Q: And the “Particle Size Distribution D(v, 0.9)” value?
A: 220.0 μm

Q: Which “Mean Diameter” value does the source give for `C[C@@H](c1ncncc1F)[C@](O)(Cn1cncn1)c1ccc(F)cc1F` [Example 18, Voriconazole] here?
A: 18.7 μm

Q: And the “Particle Size Distribution D(v, 0.1)” value?
A: 4.5 μm

Q: And the “Particle Size Distribution D(v, 0.5)” value?
A: 16.9 μm

Q: What about the “Particle Size Distribution D(v, 0.9)” value of the same compound?
A: 37.4 μm

Q: With `C[C@@H](c1ncncc1F)[C@](O)(Cn1cncn1)c1ccc(F)cc1F` [Example 19, Voriconazole] as the compound, how does the “Mean Diameter” value read?
A: 23.3 μm

Q: What about the “Particle Size Distribution D(v, 0.1)” value of the same compound?
A: 5.7 μm

Q: What about the “Particle Size Distribution D(v, 0.5)” value of the same compound?
A: 20.8 μm

Q: And the “Particle Size Distribution D(v, 0.9)” value?
A: 43.4 μm

Q: Which “Mean Diameter” value does the source give for `C[C@@H](c1ncncc1F)[C@](O)(Cn1cncn1)c1ccc(F)cc1F` [Example 20, Voriconazole] here?
A: 17.5 μm

Q: What about the “Particle Size Distribution D(v, 0.1)” value of the same compound?
A: 4.2 μm

Q: And the “Particle Size Distribution D(v, 0.5)” value?
A: 14.9 μm

Q: What about the “Particle Size Distribution D(v, 0.9)” value of the same compound?
A: 34.1 μm

Q: What does the source list for `C[C@@H](c1ncncc1F)[C@](O)(Cn1cncn1)c1ccc(F)cc1F` [Example 21, Voriconazole]?
A: Mean Diameter: 18.3 μm; Particle Size Distribution D(v, 0.1): 5.3 μm; Particle Size Distribution D(v, 0.5): 16.7 μm; Particle Size Distribution D(v, 0.9): 34.1 μm

Q: For `C[C@@H](c1ncncc1F)[C@](O)(Cn1cncn1)c1ccc(F)cc1F` [Example 22, Voriconazole], which “Mean Diameter” value is on record?
A: 21.0 μm

Q: What about the “Particle Size Distribution D(v, 0.1)” value of the same compound?
A: 5.2 μm

Q: What about the “Particle Size Distribution D(v, 0.5)” value of the same compound?
A: 19.1 μm

Q: And the “Particle Size Distribution D(v, 0.9)” value?
A: 39.1 μm

Q: What does the source list for `C[C@@H](c1ncncc1F)[C@](O)(Cn1cncn1)c1ccc(F)cc1F` [Example 23, Voriconazole]?
A: Mean Diameter: 19.8 μm; Particle Size Distribution D(v, 0.1): 5.2 μm; Particle Size Distribution D(v, 0.5): 17.9 μm; Particle Size Distribution D(v, 0.9): 37.5 μm

Q: Which “Particle Size Distribution D(v, 0.1)” value does the source give for `C[C@@H](c1ncncc1F)[C@](O)(Cn1cncn1)c1ccc(F)cc1F` [Example 24, Voriconazole] here?
A: 35.9 μm

Q: What about the “Particle Size Distribution D(v, 0.5)” value of the same compound?
A: 147.6 μm

Q: What about the “Particle Size Distribution D(v, 0.9)” value of the same compound?
A: 350.0 μm

Q: Which results are given for `C[C@@H](c1ncncc1F)[C@](O)(Cn1cncn1)c1ccc(F)cc1F` [Example 25, Voriconazole]?
A: Mean Diameter: 19.4 μm; Particle Size Distribution D(v, 0.1): 5.4 μm; Particle Size Distribution D(v, 0.5): 17.5 μm; Particle Size Distribution D(v, 0.9): 37.2 μm

Assay: Tapped density
Format: physicochemical
Conditions: after milling, sieving and blending

Q: For `C[C@@H](c1ncncc1F)[C@](O)(Cn1cncn1)c1ccc(F)cc1F` [Example 24, Voriconazole], which “Tapped Density” value is on record?
A: 0.82 g/mL
